{"source": "PubChem BioAssay (NCI)", "assay_in_all_cases": "NCI-60 cell line screen, 48 h", "key": {"NCI-H23 lung": {"test_system": "NCI-H23 lung"}, "NCI-H460 lung": {"test_system": "NCI-H460 lung"}, "NCI-H522 lung": {"test_system": "NCI-H522 lung"}, "NCI/ADR-RES ovarian": {"test_system": "NCI/ADR-RES ovarian"}, "OVCAR-3 ovarian": {"test_system": "OVCAR-3 ovarian"}, "OVCAR-4 ovarian": {"test_system": "OVCAR-4 ovarian"}, "OVCAR-5 ovarian": {"test_system": "OVCAR-5 ovarian"}, "OVCAR-8 ovarian": {"test_system": "OVCAR-8 ovarian"}, "PC-3 prostate": {"test_system": "PC-3 prostate"}, "RPMI-8226 leukemia": {"test_system": "RPMI-8226 leukemia"}, "RXF 393 renal": {"test_system": "RXF 393 renal"}, "SF-268 CNS": {"test_system": "SF-268 CNS"}, "SF-295 CNS": {"test_system": "SF-295 CNS"}, "SF-539 CNS": {"test_system": "SF-539 CNS"}, "SK-MEL-2 melanoma": {"test_system": "SK-MEL-2 melanoma"}, "SK-MEL-28 melanoma": {"test_system": "SK-MEL-28 melanoma"}, "SK-MEL-5 melanoma": {"test_system": "SK-MEL-5 melanoma"}, "SK-OV-3 ovarian": {"test_system": "SK-OV-3 ovarian"}, "SN12C renal": {"test_system": "SN12C renal"}, "SNB-19 CNS": {"test_system": "SNB-19 CNS"}, "SNB-75 CNS": {"test_system": "SNB-75 CNS"}, "SR leukemia": {"test_system": "SR leukemia"}, "SW-620 colon": {"test_system": "SW-620 colon"}, "T-47D breast": {"test_system": "T-47D breast"}, "TK-10 renal": {"test_system": "TK-10 renal"}, "U251 CNS": {"test_system": "U251 CNS"}, "UACC-257 melanoma": {"test_system": "UACC-257 melanoma"}, "UACC-62 melanoma": {"test_system": "UACC-62 melanoma"}, "UO-31 renal": {"test_system": "UO-31 renal"}}, "note": "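How tested: cells in 96-well plates exposed to compound for 48 hours at five concentrations. Here, GI50 denotes the concentration required for 50% inhibition of growth. Definition used: TGI = concentration required for complete inhibition of growth.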"}
{"smiles": "O=C(NN1C(=O)/C(=C/C=C/c2ccc([N+](=O)[O-])o2)SC1=S)c1ccc([N+](=O)[O-])cc1", "values": [{"measurement": "GI50", "setting": "NCI-H23 lung", "value": 289, "unit": "nM"}, {"measurement": "TGI", "setting": "NCI-H23 lung", "value": 916, "unit": "nM"}, {"measurement": "GI50", "setting": "NCI-H460 lung", "value": 341, "unit": "nM"}, {"measurement": "TGI", "setting": "NCI-H460 lung", "value": 1240, "unit": "nM"}, {"measurement": "GI50", "setting": "NCI-H522 lung", "value": 187, "unit": "nM"}, {"measurement": "TGI", "setting": "NCI-H522 lung", "value": 376, "unit": "nM"}, {"measurement": "GI50", "setting": "NCI/ADR-RES ovarian", "value": 765, "unit": "nM"}, {"measurement": "TGI", "setting": "NCI/ADR-RES ovarian", "value": 3110, "unit": "nM"}, {"measurement": "GI50", "setting": "OVCAR-3 ovarian", "value": 491, "unit": "nM"}, {"measurement": "TGI", "setting": "OVCAR-3 ovarian", "value": 1750, "unit": "nM"}, {"measurement": "GI50", "setting": "OVCAR-4 ovarian", "value": 1450, "unit": "nM"}, {"measurement": "TGI", "setting": "OVCAR-4 ovarian", "value": 2900, "unit": "nM"}, {"measurement": "GI50", "setting": "OVCAR-5 ovarian", "value": 1440, "unit": "nM"}, {"measurement": "TGI", "setting": "OVCAR-5 ovarian", "value": 2750, "unit": "nM"}, {"measurement": "GI50", "setting": "OVCAR-8 ovarian", "value": 266, "unit": "nM"}, {"measurement": "TGI", "setting": "OVCAR-8 ovarian", "value": 964, "unit": "nM"}, {"measurement": "GI50", "setting": "PC-3 prostate", "value": 1230, "unit": "nM"}, {"measurement": "TGI", "setting": "PC-3 prostate", "value": 3200, "unit": "nM"}, {"measurement": "GI50", "setting": "RPMI-8226 leukemia", "value": 344, "unit": "nM"}, {"measurement": "TGI", "setting": "RPMI-8226 leukemia", "value": 2110, "unit": "nM"}, {"measurement": "GI50", "setting": "RXF 393 renal", "value": 521, "unit": "nM"}, {"measurement": "TGI", "setting": "RXF 393 renal", "value": 1860, "unit": "nM"}, {"measurement": "GI50", "setting": "SF-268 CNS", "value": 1560, "unit": "nM"}, {"measurement": "TGI", "setting": "SF-268 CNS", "value": 4450, "unit": "nM"}, {"measurement": "GI50", "setting": "SF-295 CNS", "value": 1700, "unit": "nM"}, {"measurement": "TGI", "setting": "SF-295 CNS", "value": 3180, "unit": "nM"}, {"measurement": "GI50", "setting": "SF-539 CNS", "value": 263, "unit": "nM"}, {"measurement": "TGI", "setting": "SF-539 CNS", "value": 745, "unit": "nM"}, {"measurement": "GI50", "setting": "SK-MEL-2 melanoma", "value": 239, "unit": "nM"}, {"measurement": "TGI", "setting": "SK-MEL-2 melanoma", "value": 785, "unit": "nM"}, {"measurement": "GI50", "setting": "SK-MEL-28 melanoma", "value": 1100, "unit": "nM"}, {"measurement": "TGI", "setting": "SK-MEL-28 melanoma", "value": 2400, "unit": "nM"}, {"measurement": "GI50", "setting": "SK-MEL-5 melanoma", "value": 258, "unit": "nM"}, {"measurement": "TGI", "setting": "SK-MEL-5 melanoma", "value": 760, "unit": "nM"}, {"measurement": "GI50", "setting": "SK-OV-3 ovarian", "value": 1910, "unit": "nM"}, {"measurement": "TGI", "setting": "SK-OV-3 ovarian", "value": 3810, "unit": "nM"}, {"measurement": "GI50", "setting": "SN12C renal", "value": 175, "unit": "nM"}, {"measurement": "TGI", "setting": "SN12C renal", "value": 390, "unit": "nM"}, {"measurement": "GI50", "setting": "SNB-19 CNS", "value": 1460, "unit": "nM"}, {"measurement": "TGI", "setting": "SNB-19 CNS", "value": 2810, "unit": "nM"}, {"measurement": "GI50", "setting": "SNB-75 CNS", "value": 1250, "unit": "nM"}, {"measurement": "TGI", "setting": "SNB-75 CNS", "value": 3380, "unit": "nM"}, {"measurement": "GI50", "setting": "SR leukemia", "value": 21.3, "unit": "nM"}, {"measurement": "TGI", "setting": "SR leukemia", "value": "> 100000", "unit": "nM"}, {"measurement": "GI50", "setting": "SW-620 colon", "value": 188, "unit": "nM"}, {"measurement": "TGI", "setting": "SW-620 colon", "value": 405, "unit": "nM"}, {"measurement": "GI50", "setting": "T-47D breast", "value": 1800, "unit": "nM"}, {"measurement": "TGI", "setting": "T-47D breast", "value": 4400, "unit": "nM"}, {"measurement": "GI50", "setting": "TK-10 renal", "value": 1580, "unit": "nM"}, {"measurement": "TGI", "setting": "TK-10 renal", "value": 2970, "unit": "nM"}, {"measurement": "GI50", "setting": "U251 CNS", "value": 381, "unit": "nM"}, {"measurement": "TGI", "setting": "U251 CNS", "value": 1660, "unit": "nM"}, {"measurement": "GI50", "setting": "UACC-257 melanoma", "value": 1440, "unit": "nM"}, {"measurement": "TGI", "setting": "UACC-257 melanoma", "value": 3210, "unit": "nM"}, {"measurement": "GI50", "setting": "UACC-62 melanoma", "value": 218, "unit": "nM"}, {"measurement": "TGI", "setting": "UACC-62 melanoma", "value": 607, "unit": "nM"}, {"measurement": "GI50", "setting": "UO-31 renal", "value": 1080, "unit": "nM"}, {"measurement": "TGI", "setting": "UO-31 renal", "value": 2290, "unit": "nM"}]}
